Reference: patent US5079152A, “Antibody combining sites that exhibit stereoselective synthase activity, and methods using the same” (Scripps Clinic and Research Foundation, priority 1987, dated 1992)
Like-named read-outs stand apart in the source and are kept apart here.

Test system: monoclonal antibody 24B11 (receptor lactone synthase secreted by hybridoma 24B11, ATCC HB9488)
Assay: Kinetics of lactone-forming cyclization catalyzed by monoclonal receptor lactone synthase 24B11 (phenol release at 271 nm, Lineweaver-Burk)
Format: biochemical, mouse

Compound | kcat / kuncat (catalyzed versus uncatalyzed first order cyclization rate constant) | rate acceleration (presence versus absence of the catalytic lactone synthase molecule) [fold] | Km (racemic substrate ligand 20-100 uM, receptor 2 uM, 25 mM phosphate buffer pH 7.0, 25 degrees C, read-out: Km) [µM] | kcat (receptor 2 uM (IgG, 150,000 daltons), pH 7.0, 25 degrees C) [L/min] | Vmax (receptor 2 uM, substrate 20-100 uM, pH 7.0, 25 degrees C) [µM/min] | Km (in the absence of binding by the unreactive enantiomer, read-out: Km for the reactive enantiomer of the substrate ligand) [µM]
CC(=O)NCC(O)CCCC(=O)Oc1ccccc1 (racemic) [phenyl 6-acetamido-5-hydroxyhexanoate] | 167 | 167 | 76 | 0.50 | 0.99 | –
CC(=O)NCC(O)CCCC(=O)Oc1ccccc1 (single isomer, unassigned) [reactive enantiomer of the substrate ligand] | – | – | – | – | – | ~38
